A value given as a limit tells only on which side of the number the result lay.

What all share (assay): KINOMEscan kinase binding assay
The target in test [1] is JAK1(JH1domain-catalytic). Conditions: read-out: JAK1(JH1 domain-catalytic) Kd. The procedure:
(§1) Kinase binding assays were performed at Eurofins/DiscoveRx using the general KINOMEscan Protocol (Fabian, M. A. et al., “A small molecule-kinase interaction map for clinical kinase inhibitors,” Nat. Biotechnol. 2005, 23(3):329-36). For most assays, kinase-tagged T7 phage strains were prepared in an E. coli host derived from the BL21 strain. E. coli were grown to log-phase and infected with T7 phage and incubated with shaking at 32° C. until lysis. The lysates were centrifuged and filtered to remove cell debris. The remaining kinases were produced in HEK-293 cells and subsequently tagged with DNA for qPCR detection. Streptavidin-coated magnetic beads were treated with biotinylated small molecule ligands for 30 minutes at room temperature to generate affinity resins for kinase assays. The liganded beads were blocked with excess biotin and washed with blocking buffer (SeaBlock (Pierce), 1% BSA, 0.05% Tween 20, 1 mM DTT) to remove unbound ligand and to reduce nonspecific binding. Binding reactions were assembled by combining kinases, liganded affinity beads, and test compounds in 1× binding buffer (20% SeaBlock, 0.17×PBS, 0.05% Tween 20, 6 mM DTT). All reactions were performed in polystyrene 96-well plates in a final volume of 0.135 mL. The assay plates were incubated at room temperature with shaking for 1 hour and the affinity beads were washed with wash buffer (1×PBS, 0.05% Tween 20). The beads were then re-suspended in elution buffer (1×PBS, 0.05% Tween 20, 0.5 μM non-biotinylated affinity ligand) and incubated at room temperature with shaking for 30 minutes. The kinase concentration in the eluates was measured by qPCR. Results for compounds tested in this assay at a given concentration are reported as “% Ctrl”, where lower numbers indicate stronger binding in the matrix. % Ctrl was calculated as (test compound signal-positive control signal)/(negative control signal-positive control signal)×100. Dissociation constants (Kds) for test compound-kinase interactions were calculated by measuring the amount of kinase captured on the solid support as a function of the test compound concentration.

Test [2] deals with JAK1(JH2domain-pseudokinase). Conditions: read-out: JAK1(JH2 domain-pseudokinase) Kd. On the procedure: as §1
The target of test [3] is JAK2(JH1domain-catalytic). The conditions noted are these: read-out: JAK2(JH1 domain-catalytic) Kd. On the procedure:
as §1

Test [4] concerns the target JAK3(JH1domain-catalytic). Conditions: read-out: JAK3(JH1 domain-catalytic) Kd. The procedure:
as §1

Test [5] addresses TYK2(JH1domain-catalytic). Conditions: read-out: TYK2(JH1 domain-catalytic) Kd. The procedure: as §1
For test [6], the target named is TYK2(JH2domain-pseudokinase). Conditions: read-out: TYK2(JH2 domain-pseudokinase) Kd. On the procedure: as §1

The term Kd denotes a measure of binding affinity in units of concentration. As to `Cc1cc2c([nH]1)/C=C1\C(=O)Nc3c(F)cc(cc31)-c1cn(C)nc1COC[C@@H](C)N(C)C2=O` [compound 13, [3a(4)Z,10R]-20-fluoro-6,9,10,15-tetramethyl-10,11,13,15-tetrahydro-2H-1,17-ethenopyrazolo[4,3-m]dipyrrolo[3,2-f:3′,4′-i][1,4]oxazacyclopentadecine-3,8(5H,9H)-dione], the Kd is greater than 10000 nM in test [1]; 410 nM in test [2]; greater than 10000 nM in test [3]; greater than 10000 nM in test [4]; greater than 10000 nM in test [5]; 1 nM in test [6].

As to `Cc1cc2c([nH]1)/C=C1\C(=O)Nc3c(Cl)cc(cc31)-c1c(nn(C)c1C)COC[C@@H](C)N(C)C2=O` [compound 12, [3a(4)Z,10R]-20-chloro-6,9,10,15,16-pentamethyl-10,11,13,15-tetrahydro-2H-1,17-ethenopyrazolo[4,3-m]dipyrrolo[3,2-f:3′,4′-i][1,4]oxazacyclopentadecine-3,8(5H,9H)-dione], the equilibrium dissociation constant (Kd) in test [1] was greater than 10000 nM; in test [2], 120 nM; in test [3], greater than 10000 nM; in test [4], greater than 10000 nM; in test [5] it was greater than 10000 nM; in test [6], 1.3 nM.

As for `Cc1cc2c([nH]1)/C=C1\C(=O)Nc3c(Cl)cc(cc31)-c1cn(C)nc1COCCN(C)C2=O` [Cpd. 7, [3a(4)Z]-20-chloro-6,9,15-trimethyl-10,11,13,15-tetrahydro-2H-1,17-(ethanediylidene)pyrazolo[4,3-m]dipyrrolo[3,2-f:3′,4′-i][1,4]oxazacyclopentadecine-3,8(5H,9H)-dione], the dissociation constant (Kd) is greater than 10000 nM in test [1]; 47 nM in test [2]; greater than 10000 nM in test [3]; greater than 10000 nM in test [4]; greater than 10000 nM in test [5]; 0.51 nM in test [6].

For the compound `Cc1cc2c([nH]1)/C=C1\C(=O)Nc3c(F)cc(cc31)-c1c(nn(C)c1C)COC[C@@H](C)N(C)C2=O` [compound 11, [3a(4)Z,10R]-20-fluoro-6,9,10,15,16-pentamethyl-10,11,13,15-tetrahydro-2H-1,17-ethenopyrazolo[4,3-m]dipyrrolo[3,2-f:3′,4′-i][1,4]oxazacyclopentadecine-3,8(5H,9H)-dione], the Kd in test [1] was greater than 10000 nM; in test [2], 730 nM; in test [3] it was greater than 10000 nM; in test [4], 5200 nM; in test [5], greater than 10000 nM; in test [6] it was 3.4 nM.

Turning to `Cc1cc2c([nH]1)/C=C1\C(=O)Nc3c(Cl)cc(cc31)-c1[nH]c(C)nc1COC[C@@H](C)N(C)C2=O` [Cpd. 9, [3a(4)Z,10R]-20-chloro-6,9,10,15-tetramethyl-10,11,13,16-tetrahydro-2H-1,17-(ethanediylidene)imidazo[4,5-m]dipyrrolo[3,2-f:3′,4′-i][1,4]oxazacyclopentadecine-3,8(5H,9H)-dione], the equilibrium dissociation constant (Kd) was greater than 10000 nM in test [1]; 130 nM in test [2]; greater than 10000 nM in test [3]; 3100 nM in test [4]; greater than 10000 nM in test [5]; 1 nM in test [6].

For the compound `Cc1nc2c([nH]1)/C=C1\C(=O)Nc3c(Cl)cc(cc31)-c1cn(C)nc1COC[C@@H](C)N(C)C2=O` [Cpd. 8, [3a(4)Z,10R]-20-chloro-6,9,10,15-tetramethyl-10,11,13,15-tetrahydro-2H-1,17-(ethanediylidene)imidazo[4,5-f]pyrazolo[4,3-m]pyrrolo[3,4-i][1,4]oxazacyclopentadecine-3,8(5H,9H)-dione], the dissociation constant (Kd) in test [1] is greater than 10000 nM; in test [3], greater than 10000 nM; in test [4] it was greater than 10000 nM; in test [5], greater than 10000 nM; in test [6], 170 nM.

`Cc1cc2c([nH]1)/C=C1\C(=O)Nc3c(C#N)cc(cc31)-c1cn(C)nc1COC[C@@H](C)N(C)C2=O` [Cpd. 10, [3a(4)Z,10R]-6,9,10,15-tetramethyl-3,8-dioxo-3,5,8,9,10,11,13,15-octahydro-2H-1,17-(ethanediylidene)pyrazolo[4,3-m]dipyrrolo[3,2-f:3′,4′-i][1,4]oxazacyclopentadecine-20-carbonitrile]: the Kd is greater than 1000 nM in test [1], greater than 1000 nM in test [3], greater than 1000 nM in test [4] and 46 nM in test [6].

`Cc1cc2c([nH]1)/C=C1\C(=O)Nc3c(Cl)cc(cc31)-c1cn(C)nc1COC[C@H](C)N(C)C2=O` [compound 6, [3a(4)Z,10S]-20-chloro-6,9,10,15-tetramethyl-10,11,13,15-tetrahydro-2H-1,17-(ethanediylidene)pyrazolo[4,3-m]dipyrrolo[3,2-f:3′,4′-i][1,4]oxazacyclopentadecine-3,8(5H,9H)-dione]: the Kd is greater than 10000 nM in test [1]; 160 nM in test [2]; greater than 10000 nM in test [3]; greater than 10000 nM in test [4]; greater than 10000 nM in test [5]; 2.5 nM in test [6].

These data come from patent US20250074920A1, “MACROCYCLIC COMPOUNDS AND USE AS KINASE INHIBITORS” (BLOSSOMHILL THERAPEUTICS, INC., priority 2022, published 2025).
